Among the test systems are K562; UO-31; M14; HCC 2998; SK-MEL-2; HOP-92; MDA-MB-435; HCT-116; OVCAR-3; NCI-H23; SF-295; OVCAR-5; ACHN; UACC-62; DU-145; UACC-257; HOP-62; MOLT-4; MDA-N.
Holding throughout (test): DTP human tumour cell line panel, 48 h

By GI50 is commonly meant the concentration at which growth is held to half of that of the control.

SMILES strings stand for the structures.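 Following 48 hours of exposure in 96-well plates, responses at five concentrations were used to interpolate endpoints linearly. At the GI50, growth is halved.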 The source made the active and inactive calls. No stated cut-off is given here; in the data, active = GI50 up to about 1.1 µM and inactive = higher.

With `CCCCOC(=O)C1CN2C=CC=NC2=NC1(C(F)(F)F)C(F)(F)F` (stereo unspecified), the GI50 in the assay with K562, in the assay on UO-31, in the assay on M14, with HCC 2998, in the assay with SK-MEL-2 and with HOP-92 was > 100 µM (inactive) each time. The GI50 in the assay with MDA-MB-435, with HCT-116, in the assay on OVCAR-3, in the assay with NCI-H23, with SF-295 and with OVCAR-5 was > 100 µM (inactive) in each case. For the same compound, the GI50 with ACHN, in the assay with UACC-62, with DU-145, in the assay on UACC-257, with HOP-62 and in the assay on MOLT-4 was > 100 µM (inactive) throughout. The GI50 with MDA-N was > 100 µM (inactive).

On to `[N-]=[N+]=CC(=O)OC(CCl)CCl`, for which the GI50 in the assay with K562, in the assay with UO-31, in the assay with HCC 2998, in the assay with SK-MEL-2, in the assay on HOP-92 and with MDA-MB-435 was > 100 µM (inactive) in each case. Besides, the GI50 in the assay on HCT-116, in the assay on OVCAR-3, with NCI-H23, in the assay with SF-295, in the assay with OVCAR-5 and with ACHN was > 100 µM (inactive) throughout. The GI50 in the assay with UACC-62, with DU-145, in the assay on UACC-257, with HOP-62, in the assay with MOLT-4 and in the assay with MDA-N was > 100 µM (inactive) in each case.

Regarding `Cc1c2ccccc2c(C)n2c1nc1cc3ccccc3cc12`, the GI50 is 2.91 µM (inactive) in the assay with K562; 1.38 µM (inactive) with M14; 1.78 µM (inactive) with HCC 2998; 1.61 µM (inactive) with SK-MEL-2; 0.00215 µM (active) in the assay on HOP-92; 1.61 µM (inactive) with MDA-MB-435. The GI50 in the assay with HCT-116 is 1.37 µM (inactive); in the assay with OVCAR-3 it was 0.968 µM (active); in the assay with NCI-H23, 1.29 µM (inactive); in the assay on SF-295, 1.06 µM (active); in the assay with OVCAR-5 it was 1.02 µM (active); with ACHN it was 0.783 µM (active). Further, the GI50 in the assay on UACC-62 was 1.49 µM (inactive); with DU-145, 1.3 µM (inactive); in the assay on UACC-257, 3.3 µM (inactive); in the assay with HOP-62, 1.34 µM (inactive); in the assay with MOLT-4, 1.32 µM (inactive); with MDA-N, 1.47 µM (inactive).

As for `c1ccc(NN=C(c2ccccn2)c2ccccn2)nc1`, the concentration for 50% growth inhibition (GI50) in the assay with K562 is 0.463 µM (active); with UO-31, 0.0267 µM (active); in the assay with M14, 0.152 µM (active); with HCC 2998 it was 2.23 µM (inactive); in the assay with SK-MEL-2, 0.49 µM (active); in the assay with HOP-92, 0.488 µM (active). Besides, the 50% growth inhibitory concentration (GI50) in the assay on MDA-MB-435 is 0.817 µM (active); with HCT-116, 0.0785 µM (active); in the assay with OVCAR-3, < 0.0217 µM (active); in the assay on NCI-H23 it was 0.0408 µM (active); with SF-295 it was 0.423 µM (active); in the assay on OVCAR-5, 0.794 µM (active). Further, the GI50 in the assay with ACHN is 0.159 µM (active); in the assay with UACC-62, 0.153 µM (active); in the assay on DU-145 it was 0.331 µM (active); with UACC-257, 0.187 µM (active); in the assay with HOP-62 it was 0.346 µM (active); in the assay on MDA-N, 0.533 µM (active).

As to `CN(C)/C=C(\C(=O)c1ccccc1)n1nc(-c2ccccc2)cc1-c1ccccc1`, the GI50 with M14 was > 10 µM (inactive); with HCC 2998, > 10 µM (inactive); in the assay on SK-MEL-2, > 10 µM (inactive); in the assay with HOP-92 it was 7.38 µM (inactive); in the assay with MDA-MB-435, > 10 µM (inactive); in the assay on HCT-116, > 10 µM (inactive). The GI50 in the assay with OVCAR-3, in the assay with NCI-H23, in the assay with SF-295, with OVCAR-5, with ACHN and with UACC-62 was > 10 µM (inactive) in each case. Moreover, the GI50 with DU-145, in the assay on UACC-257, with HOP-62, with MOLT-4 and in the assay on MDA-N was > 10 µM (inactive) each time.

For `CCC(=O)c1ccc2[nH]c3c(C)c4c(O)cc(C)nc4c(C)c3c2c1`, the GI50 in the assay with UO-31 was > 100 µM (inactive); in the assay on M14 it was > 100 µM (inactive); in the assay on HCC 2998, > 100 µM (inactive); in the assay on SK-MEL-2 it was > 100 µM (inactive); with HOP-92, 4.3 µM (inactive); in the assay with MDA-MB-435, > 100 µM (inactive). The GI50 with HCT-116, in the assay with NCI-H23, in the assay with SF-295, with OVCAR-5, in the assay on ACHN and in the assay on DU-145 was > 100 µM (inactive) throughout. Further, the GI50 in the assay on UACC-257 is > 100 µM (inactive); in the assay on HOP-62 it was 92 µM (inactive); in the assay on MOLT-4, > 100 µM (inactive); in the assay with MDA-N, > 100 µM (inactive).

For the compound `O=C1Nc2ccccc2/C1=N/NC(=O)C(O)(c1ccccc1)c1ccccc1`, the GI50 was 23.2 µM (inactive) with K562; 15.6 µM (inactive) with UO-31; 16.7 µM (inactive) with M14; 14.6 µM (inactive) in the assay on HCC 2998; 17 µM (inactive) in the assay with SK-MEL-2; 18.9 µM (inactive) in the assay with HOP-92. Further, the GI50 in the assay on MDA-MB-435 was 17 µM (inactive); with HCT-116 it was 22.9 µM (inactive); with OVCAR-3, 20 µM (inactive); with NCI-H23 it was 16.1 µM (inactive); with SF-295, 18.8 µM (inactive); in the assay on OVCAR-5, 17.2 µM (inactive). For the same compound, the GI50 was 29.4 µM (inactive) with ACHN; 15.8 µM (inactive) with UACC-62; 25.1 µM (inactive) with DU-145; 22 µM (inactive) in the assay on UACC-257; 15.2 µM (inactive) in the assay on MOLT-4; 16.9 µM (inactive) in the assay on MDA-N.

Consider `COc1c2c(cc3oc(C)cc(=O)c13)OC(=N)C(C(N)=O)C2CC(=O)c1ccc(N)cc1` (stereo unspecified), for which the GI50 in the assay with K562, in the assay on UO-31, with M14, in the assay with HCC 2998, with SK-MEL-2 and in the assay on HOP-92 was > 100 µM (inactive) in each case. Moreover, the GI50 in the assay with MDA-MB-435, in the assay on HCT-116, in the assay on OVCAR-3, in the assay on SF-295, in the assay with OVCAR-5 and in the assay on ACHN was > 100 µM (inactive) throughout. For the same compound, the GI50 in the assay with UACC-62, in the assay on DU-145, with UACC-257, in the assay with MOLT-4 and in the assay with MDA-N was > 100 µM (inactive) in each case.

The values above are taken from ChEMBL document CHEMBL1201862, “PubChem BioAssay data set” (2004).
